Experimental data: patent US9187492B2, “Pyripyropene derivative having ACAT2 inhibiting activity and stable to metabolizing enzymes” (School Juridical Person Kitasato Institute, priority 2010, dated 2015)
Read-outs that look alike come from different tables or passages of the source.

Tests used:
ACAT2 = biological target: T1, ACAT2 (Mus musculus, UniProt O88908); experiment: Measurement of ACAT2-inhibiting activity (murine hepatic microsome, [14C]cholesteryl oleate formation); type: biochemical
T1 construct: The resulting sediment was collected as a microsome fraction; from tissue; host or cells: mouse liver (hepatic microsome membrane fraction)
T1 sequence (O88908 1-525): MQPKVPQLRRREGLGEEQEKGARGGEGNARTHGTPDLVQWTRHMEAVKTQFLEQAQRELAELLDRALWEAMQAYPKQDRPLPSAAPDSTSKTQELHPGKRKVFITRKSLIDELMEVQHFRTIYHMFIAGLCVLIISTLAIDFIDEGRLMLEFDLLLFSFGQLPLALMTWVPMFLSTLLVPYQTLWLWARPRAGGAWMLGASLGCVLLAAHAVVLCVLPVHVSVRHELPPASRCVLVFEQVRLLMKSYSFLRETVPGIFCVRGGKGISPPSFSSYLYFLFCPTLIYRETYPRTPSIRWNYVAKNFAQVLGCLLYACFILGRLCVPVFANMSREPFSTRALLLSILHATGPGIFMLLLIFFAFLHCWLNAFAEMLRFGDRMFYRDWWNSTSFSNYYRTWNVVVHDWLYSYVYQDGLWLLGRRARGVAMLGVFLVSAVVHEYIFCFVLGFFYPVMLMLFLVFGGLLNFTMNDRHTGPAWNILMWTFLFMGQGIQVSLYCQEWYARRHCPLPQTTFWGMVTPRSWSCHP
Description: The enzyme source which was used was a membrane fraction derived from murine hepatic microsome. Mouse livers were homogenized in buffer solution A (50 mM Tris HCl solution (pH 7.8), 1 mM ethylene diamine tetraacetate, and 1 mM phenylmethanesulfonyl fluoride) using a Potter-type homogenizer (Tokyo-Riko). The homogenate was centrifuged at 12000×g, and the supernatant was subjected to ultracentrifugation at 100000×g. The resulting sediment was collected as a microsome fraction, and this fraction was adjusted so as to have a protein concentration of 5 mg/mL using buffer solution A.
As a control, 10 μL of methanol were used in place of the pyripyropene derivative.
The chloroform layer was evaporated to dryness and was used to spot a thin layer chromatography plate (silica gel plate, Merck, 0.5 mm thickness). Elution for separation was carried out using hexane/diethyl ether/acetic acid (70:30:1, v/v) as an eluant.
wherein the background is the radioactivity of a thin layer chromatography plate which was not spotted.

[1] = Stability against metabolizing enzymes in the liver (hepatic microsome); settings: time until remaining amount reached 50%, 37° C.; for half-life at 6 μg/mL: female, Sprague-Dawley (SD), rat, liver microsomes, pH 7.4, Half-life; for Half-life: female SD rat hepatic microsome, 6 μg/mL, pH 7.4
[2] = murine hepatic microsome membrane fraction, 5 min at 37° C.; read-out: Inhibitory activity (concentration required for 50% inhibition of ACAT 2 = IC50)
[3] = relative to PRD 043; class symbols
[4] = read-out: Inhibitory activity (concentration required for 50% inhibition of ACAT 2 = IC50); murine hepatic microsome membrane fraction, 5 min at 37° C.

Row | Compound | IC50 (ACAT2; [2]) | Specific activity ((IC50 of the test compound)/(IC50 of PRD 043)) (ACAT2; [3]) | half-life at 6 μg/mL [1] | Half-life [1] | IC50 (ACAT2; [4]) | Specific activity ((IC50 of the test compound)/(IC50 of PRD 043)) (ACAT2; relative to PRD 043; given as number)
1 | CN(C)c1ccc([C@@H]2OCC3(C)C4C[C@H](OC(=O)c5ccc(C#N)cc5)[C@@]5(C)Oc6cc(-c7cccnc7)oc(=O)c6[C@H](O)C5[C@@]4(C)CC[C@@H]3O2)cc1 (some centres unmarked) [PRD123, 1,11-O-p-dimethylaminobenzylidene-7-O-p-cyanobenzoyl-1,7,11-trideacetylpyripyropene A] | < 0.5 nM | ++++ (20<specific activity) | ≥ 9 h | >9 h | – | –
2 | CCCCCC(=O)OCC1(C)C2C[C@H](OC(=O)c3ccc(C#N)cc3)[C@@]3(C)Oc4cc(-c5cccnc5)oc(=O)c4[C@H](O)C3[C@@]2(C)CC[C@@H]1OC(=O)CCCCC (some centres unmarked) [PRD167, 7-O-p-cyanobenzoyl-1,11-O-dihexanoyl-1,7,11-trideacetylpyripyropene A] | 0.5 to 1 nM | +++ (10<specific activity≦20) | ≥ 9 h | >9 h | – | –
3 | CC(=O)OCC1(C)C2C[C@H](OC(=O)c3ccccc3C)[C@@]3(C)Oc4cc(-c5cccnc5)oc(=O)c4[C@H](O)C3[C@@]2(C)CC[C@@H]1OC(C)=O (some centres unmarked) [PRD007, reference compound] | – | – | 1 h | <1 h | – | –
4 | Cc1ccc([C@@H]2OCC3(C)C4C[C@H](OC(=O)c5ccc(F)cc5)[C@@]5(C)Oc6cc(-c7cccnc7)oc(=O)c6[C@H](O)C5[C@@]4(C)CC[C@@H]3O2)c(C)c1 (some centres unmarked) [PRD160, 1,11-O-o,p-dimethylbenzylidene-7-O-p-fluorobenzoyl-1,7,11-trideacetylpyripyropene A] | 0.5 to 1 nM | +++ (10<specific activity≦20) | ≥ 9 h | >9 h | – | –
5 | CC(=O)O[C@H]1CC2C3(C)CO[C@@H](c4ccccc4)O[C@H]3CC[C@]2(C)C2[C@@H](O)c3c(cc(-c4cccnc4)oc3=O)O[C@@]21C (some centres unmarked) [PRD186, 1,11-O-benzylidene-1,11-dideacetylpyripyropene A] | 1 to 10 nM | +++ (10<specific activity≦20) | ≥ 9 h | >9 h | – | –
6 | COc1cccc(C(=O)O[C@H]2CC3C(C)(COC(C)=O)[C@@H](OC(C)=O)CC[C@]3(C)C3[C@@H](O)c4c(cc(-c5cccnc5)oc4=O)O[C@@]32C)c1 (some centres unmarked) [PRD043, reference compound] | – | – | ≥ 9 h | >9 h | > 10 nM | 1
7 | Cc1ccccc1[C@@H]1OCC2(C)C3C[C@H](OC(=O)c4ccc(F)cc4)[C@@]4(C)Oc5cc(-c6cccnc6)oc(=O)c5[C@H](O)C4[C@@]3(C)CC[C@@H]2O1 (some centres unmarked) [PRD155, 1,11-O-o-methylbenzylidene-7-O-p-fluorobenzoyl-1,7,11-trideacetylpyripyropene A] | 0.5 to 1 nM | +++ (10<specific activity≦20) | ≥ 9 h | >9 h | – | –
8 | COC(=O)C1(C)C2C[C@H](OC(=O)c3ccc(C#N)cc3)[C@@]3(C)Oc4cc(-c5cccnc5)oc(=O)c4[C@H](O)C3[C@@]2(C)CC[C@@H]1OC(C)=O (some centres unmarked) [PRD070, 7-O-p-cyanobenzoyl-11-deacetoxymethyl-7-deacetyl-11-methoxy-carbonylpyripyropene A] | 0.5 to 1 nM | +++ (10<specific activity≦20) | > 9 h | – | – | –
9 | COc1ccc(CNC(=O)C2(C)C3C[C@H](OC(=O)c4ccc(C#N)cc4)[C@@]4(C)Oc5cc(-c6cccnc6)oc(=O)c5[C@H](O)C4[C@@]3(C)CC[C@@H]2OC(C)=O)c(OC)c1 (some centres unmarked) [PRD071, 7-O-p-cyanobenzoyl-11-deacetoxymethyl-7-deacetyl-11-(2,4-dimethoxybenzylamino)carbonylpyripyropene A] | < 0.5 nM | ++++ (20<specific activity) | ≥ 9 h | >9 h | – | –
10 | CC(C)C(=O)OCC1(C)C2C[C@H](OC(=O)c3ccc(C#N)cc3)[C@@]3(C)Oc4cc(-c5cccnc5)oc(=O)c4[C@H](O)C3[C@@]2(C)CC[C@@H]1OC(=O)C(C)C (some centres unmarked) [PRD056, reference compound] | – | − (0.1≦specific activity<1) | ≥ 9 h | >9 h | > 10 nM | –
11 | CC(C)C(=O)OCC1(C)C2C[C@H](OC(=O)c3ccc([N+](=O)[O-])cc3)[C@@]3(C)Oc4cc(-c5cccnc5)oc(=O)c4[C@H](O)C3[C@@]2(C)CC[C@@H]1OC(=O)C(C)C (some centres unmarked) [PRD079, 7-O-p-nitrobenzoyl-1,11-O-diisobutyryl-1,7,11-trideacetylpyripyropene A] | 0.5 to 1 nM | +++ (10<specific activity≦20) | ≥ 9 h | >9 h | – | –
12 | CC(=O)OCC1(C)C2C[C@H](OC(=O)c3ccc(C)cc3)[C@@]3(C)Oc4cc(-c5cccnc5)oc(=O)c4[C@H](O)C3[C@@]2(C)CC[C@@H]1OC(C)=O (some centres unmarked) [PRD009, reference compound] | – | – | 1 h | <1 h | – | –
13 | CC(=O)OCC1(C)C2C[C@H](OC(=O)c3ccc(C#N)cc3)[C@@]3(C)Oc4cc(-c5cccnc5)oc(=O)c4[C@H](O)C3[C@@]2(C)CC[C@@H]1OC(=O)c1ccccc1 (some centres unmarked) [PRD121, 7-O-p-cyanobenzoyl-1,7-dideacetyl-1-O-benzoylpyripyropene A] | 0.5 to 1 nM | +++ (10<specific activity≦20) | ≥ 9 h | >9 h | – | –
14 | CC(=O)OCC1(C)C2C[C@H](OC(=O)C3CCCCC3)[C@@]3(C)Oc4cc(-c5cccnc5)oc(=O)c4[C@H](O)C3[C@@]2(C)CC[C@@H]1OC(C)=O (some centres unmarked) [PRD021, reference compound] | – | – | 1 h | <1 h | – | –
15 | CC(=O)O[C@H]1CC[C@@]2(C)C(C[C@H](OC(C)=O)[C@@]3(C)Oc4cc(-c5cccnc5)oc(=O)c4[C@H](O)C23)C1(C)COC(=O)c1ccccc1 (some centres unmarked) [PRD177, 11-O-benzoyl-11-deacetylpyripyropene A] | 1 to 10 nM | +++ (10<specific activity≦20) | ≥ 9 h | >9 h | – | –
16 | CC(=O)O[C@H]1CC2C(C)(COC(=O)C(C)C)[C@@H](OC(=O)C(C)C)CC[C@]2(C)C2[C@@H](O)c3c(cc(-c4cccnc4)oc3=O)O[C@@]21C (some centres unmarked) [PRD187, 1,11-O-diisobutyryl-1,11-dideacetylpyripyropene A] | 0.5 to 1 nM | +++ (10<specific activity≦20) | ≥ 9 h | >9 h | – | –
17 | CC(=O)OCC1(C)C2C[C@H](OC(=O)c3ccccc3F)[C@@]3(C)Oc4cc(-c5cccnc5)oc(=O)c4[C@H](O)C3[C@@]2(C)CC[C@@H]1OC(C)=O (some centres unmarked) [PRD026, reference compound] | – | – | 1 h | <1 h | – | –
18 | Cc1cccc(C2OCC3(C)C(CCC4(C)C3CC(OC(=O)c3ccc(C#N)cc3)C3(C)Oc5cc(-c6cccnc6)oc(=O)c5C(O)C43)O2)c1 (centres unmarked) [PRD157, 1,11-O-m-methylbenzylidene-7-O-p-cyanobenzoyl-1,7,11-trideacetylpyripyropene A] | < 0.5 nM | ++++ (20<specific activity) | ≥ 9 h | >9 h | – | –
19 | Cc1ccc([C@@H]2OCC3(C)C4C[C@H](OC(=O)c5ccc(F)cc5)[C@@]5(C)Oc6cc(-c7cccnc7)oc(=O)c6[C@H](O)C5[C@@]4(C)CC[C@@H]3O2)cc1 (some centres unmarked) [PRD156, 1,11-O-p-methylbenzylidene-7-O-p-fluorobenzoyl-1,7,11-trideacetylpyripyropene A] | < 0.5 nM | ++++ (20<specific activity) | ≥ 9 h | >9 h | – | –
20 | CCc1ccc(C(=O)O[C@H]2CC3C(C)(COC(C)=O)[C@@H](OC(C)=O)CC[C@]3(C)C3[C@@H](O)c4c(cc(-c5cccnc5)oc4=O)O[C@@]32C)cc1 (some centres unmarked) [PRD024, reference compound] | – | – | 1 h | <1 h | – | –
21 | CC(=O)OCC1(C)C2C[C@H](OC(=O)c3cccc(Br)c3)[C@@]3(C)Oc4cc(-c5cccnc5)oc(=O)c4[C@H](O)C3[C@@]2(C)CC[C@@H]1OC(C)=O (some centres unmarked) [PRD025, reference compound] | – | – | 1 h | <1 h | – | –
